{"source": "patent US7750003B2", "about": "“Compounds-943” (AstraZeneca AB, priority 2006, dated 2010)", "target": "recombinant mTOR (FLAG-tagged, residues 1362-2549) (Homo sapiens, UniProt P42345)", "sequence (P42345 1362-2549)": "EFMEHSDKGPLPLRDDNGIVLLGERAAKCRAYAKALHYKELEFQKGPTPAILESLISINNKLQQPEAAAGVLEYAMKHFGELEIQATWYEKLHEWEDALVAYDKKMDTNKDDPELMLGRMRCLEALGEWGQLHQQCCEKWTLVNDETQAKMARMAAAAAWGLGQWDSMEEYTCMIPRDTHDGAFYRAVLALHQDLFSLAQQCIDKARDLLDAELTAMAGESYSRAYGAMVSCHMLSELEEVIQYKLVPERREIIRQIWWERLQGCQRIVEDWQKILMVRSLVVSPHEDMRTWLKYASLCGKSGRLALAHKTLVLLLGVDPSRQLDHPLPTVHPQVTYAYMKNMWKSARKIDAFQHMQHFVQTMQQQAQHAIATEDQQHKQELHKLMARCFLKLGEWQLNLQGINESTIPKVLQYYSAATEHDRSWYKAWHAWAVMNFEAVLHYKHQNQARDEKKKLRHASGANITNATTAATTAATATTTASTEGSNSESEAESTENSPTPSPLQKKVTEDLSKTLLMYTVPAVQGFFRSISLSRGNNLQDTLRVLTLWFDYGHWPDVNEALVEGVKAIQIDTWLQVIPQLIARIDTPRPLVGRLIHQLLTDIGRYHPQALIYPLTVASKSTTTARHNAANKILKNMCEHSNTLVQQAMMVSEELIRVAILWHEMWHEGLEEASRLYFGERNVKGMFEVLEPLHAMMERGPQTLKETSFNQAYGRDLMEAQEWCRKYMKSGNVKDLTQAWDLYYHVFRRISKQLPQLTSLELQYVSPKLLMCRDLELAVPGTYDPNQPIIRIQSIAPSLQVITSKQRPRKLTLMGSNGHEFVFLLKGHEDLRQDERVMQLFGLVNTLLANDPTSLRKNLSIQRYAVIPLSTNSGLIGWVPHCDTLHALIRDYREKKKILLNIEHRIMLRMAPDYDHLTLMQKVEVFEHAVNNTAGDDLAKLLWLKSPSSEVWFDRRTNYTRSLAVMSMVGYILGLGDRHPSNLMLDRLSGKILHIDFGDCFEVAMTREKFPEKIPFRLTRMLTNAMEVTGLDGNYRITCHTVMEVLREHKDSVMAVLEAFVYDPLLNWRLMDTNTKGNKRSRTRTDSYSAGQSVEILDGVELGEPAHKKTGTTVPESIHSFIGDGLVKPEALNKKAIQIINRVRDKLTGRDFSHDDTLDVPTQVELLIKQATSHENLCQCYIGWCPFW", "experiment": "In vitro mTOR kinase assay (Test (a), AlphaScreen)", "type": "biochemical", "settings": "ATP 20 μM, read-out: Test (a): IC50 versus mTOR kinase", "summary_of_the_method": "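AlphaScreen read-out: a phospho-T389 p70 S6K antibody on acceptor beads captures the phosphorylated biotin-peptide on donor beads, with signal loss indicating inhibition.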"}
{"smiles": "CC(C)(c1cc(N2CCOCC2)nc(-c2ccc(NC(=O)NC3CC3)cc2)n1)S(C)(=O)=O", "note": "[Example 21b, 3-cyclopropyl-1-[4-[4-(2-methylsulfonylpropan-2-yl)-6-morpholin-4-yl-pyrimidin-2-yl]phenyl]urea]", "values": [{"measurement": "IC50", "result": 0.36, "unit": "µM"}]}
{"smiles": "CN(C)CCNC(=O)Nc1ccc(-c2nc(N3CCOCC3)cc(C(C)(C)S(C)(=O)=O)n2)cc1", "note": "[Example 21c, 3-(2-dimethylaminoethyl)-1-[4-[4-(2-methylsulfonylpropan-2-yl)-6-morpholin-4-yl-pyrimidin-2-yl]phenyl]urea]", "values": [{"measurement": "IC50", "result": 0.48, "unit": "µM"}]}
{"smiles": "CN1CCC(NC(=O)Nc2ccc(-c3nc(N4CCOCC4)cc(C(C)(C)S(C)(=O)=O)n3)cc2)CC1", "note": "[Example 21d, 3-(1-methyl-4-piperidyl)-1-[4-[4-(2-methylsulfonylpropan-2-yl)-6-morpholin-4-yl-pyrimidin-2-yl]phenyl]urea]", "values": [{"measurement": "IC50", "result": 0.27, "unit": "µM"}]}
{"smiles": "COCCNC(=O)Nc1ccc(-c2nc(N3CCOCC3)cc(C(C)(C)S(C)(=O)=O)n2)cc1", "note": "[Example 21e, 3-(2-methoxyethyl)-1-[4-[4-(2-methylsulfonylpropan-2-yl)-6-morpholin-4-yl-pyrimidin-2-yl]phenyl]urea]", "values": [{"measurement": "IC50", "result": 1, "unit": "µM"}]}
{"smiles": "CNC(=O)Nc1ccc(-c2nc(N3CCOC[C@@H]3C)cc(C(C)(C)S(C)(=O)=O)n2)cc1", "note": "[Example 21f, 3-methyl-1-[4-[4-[(3S)-3-methylmorpholin-4-yl]-6-(2-methylsulfonylpropan-2-yl)pyrimidin-2-yl]phenyl]urea]", "values": [{"measurement": "IC50", "result": 0.017, "unit": "µM"}]}
{"smiles": "CCNC(=O)Nc1ccc(-c2nc(N3CCOC[C@@H]3C)cc(C(C)(C)S(C)(=O)=O)n2)cc1", "note": "[Example 21g, 1-ethyl-3-[4-[4-[(3S)-3-methylmorpholin-4-yl]-6-(2-methylsulfonylpropan-2-yl)pyrimidin-2-yl]phenyl]urea]", "values": [{"measurement": "IC50", "result": 0.02, "unit": "µM"}]}
{"smiles": "C[C@H]1COCCN1c1cc(C(C)(C)S(C)(=O)=O)nc(-c2ccc(NC(=O)NCCN(C)C)cc2)n1", "note": "[Example 21i, 3-(2-dimethylaminoethyl)-1-[4-[4-[(3S)-3-methylmorpholin-4-yl]-6-(2-methylsulfonylpropan-2-yl)pyrimidin-2-yl]phenyl]urea]", "values": [{"measurement": "IC50", "result": 0.076, "unit": "µM"}]}
{"smiles": "C[C@H]1COCCN1c1cc(C(C)(C)S(C)(=O)=O)nc(-c2ccc(NC(=O)NC3CCN(C)CC3)cc2)n1", "note": "[Example 21j, 1-[4-[4-[(3S)-3-methylmorpholin-4-yl]-6-(2-methylsulfonylpropan-2-yl)pyrimidin-2-yl]phenyl]-3-(1-methyl-4-piperidyl)urea]", "values": [{"measurement": "IC50", "result": 0.51, "unit": "µM"}]}
{"smiles": "COCCNC(=O)Nc1ccc(-c2nc(N3CCOC[C@@H]3C)cc(C(C)(C)S(C)(=O)=O)n2)cc1", "note": "[Example 21k, 3-(2-methoxyethyl)-1-[4-[4-[(3S)-3-methylmorpholin-4-yl]-6-(2-methylsulfonylpropan-2-l)pyrimidin-2-yl]phenyl]urea]", "values": [{"measurement": "IC50", "result": 0.31, "unit": "µM"}]}
{"smiles": "C[C@H]1COCCN1c1cc(CS(C)(=O)=O)nc(-c2ccc(NC(=O)Nc3ncccn3)cc2)n1", "note": "[Example 22a, 1-[4-[4-[(3S)-3-methylmorpholin-4-yl]-6-(methylsulfonylmethyl)pyrimidin-2-yl]phenyl]-3-pyrimidin-2-yl-urea]", "values": [{"measurement": "IC50", "result": 0.06, "unit": "µM"}]}
{"smiles": "Cc1cccc(C)c1NC(=O)Nc1ccc(-c2nc(CS(C)(=O)=O)cc(N3CCOC[C@@H]3C)n2)cc1", "note": "[Example 22b, 1-(2,6-dimethylphenyl)-3-[4-[4-[(3S)-3-methylmorpholin-4-yl]-6-(methylsulfonylmethyl)pyrimidin-2-yl]phenyl]urea]", "values": [{"measurement": "IC50", "result": 1.6, "unit": "µM"}]}
{"smiles": "Cc1cc(NC(=O)Nc2ccc(-c3nc(CS(C)(=O)=O)cc(N4CCOC[C@@H]4C)n3)cc2)no1", "note": "[Example 22d, 3-[4-[4-[(3S)-3-methylmorpholin-4-yl]-6-(methylsulfonylmethyl)pyrimidin-2-yl]phenyl]-1-(5-methyl-1,2-oxazol-3-yl)urea]", "values": [{"measurement": "IC50", "result": 0.0048, "unit": "µM"}]}
{"smiles": "Cc1oncc1NC(=O)Nc1ccc(-c2nc(CS(C)(=O)=O)cc(N3CCOC[C@@H]3C)n2)cc1", "note": "[Example 22e, 3-[4-[4-[(3S)-3-methylmorpholin-4-yl]-6-(methylsulfonylmethyl)pyrimidin-2-yl]phenyl]-1-(5-methyl-1,2-oxazol-4-yl)urea]", "values": [{"measurement": "IC50", "result": 0.56, "unit": "µM"}]}
{"smiles": "C[C@H]1COCCN1c1cc(CS(C)(=O)=O)nc(-c2ccc(NC(=O)Nc3cnn(C)c3)cc2)n1", "note": "[Example 22f, 1-[4-[4-[(3S)-3-methylmorpholin-4-yl]-6-(methylsulfonylmethyl)pyrimidin-2-yl]phenyl]-3-(1-methylpyrazol-4-yl)urea]", "values": [{"measurement": "IC50", "result": 0.091, "unit": "µM"}]}
{"smiles": "C[C@H]1COCCN1c1cc(CS(C)(=O)=O)nc(-c2ccc(NC(=O)Nc3cc[nH]c(=O)c3)cc2)n1", "note": "[Example 22g, 1-[4-[4-[(3S)-3-methylmorpholin-4-yl]-6-(methylsulfonylmethyl)pyrimidin-2-yl]phenyl]-3-(2-oxo-1H-pyridin-4-yl)urea]", "values": [{"measurement": "IC50", "result": 0.0045, "unit": "µM"}]}
{"smiles": "Cc1nn(C)c(C)c1NC(=O)Nc1ccc(-c2nc(CS(C)(=O)=O)cc(N3CCOC[C@@H]3C)n2)cc1", "note": "[Example 22h, 3-[4-[4-[(3S)-3-methylmorpholin-4-yl]-6-(methylsulfonylmethyl)pyrimidin-2-yl]phenyl]-1-(1,3,5-trimethylpyrazol-4-yl)urea]", "values": [{"measurement": "IC50", "result": 1.5, "unit": "µM"}]}
{"smiles": "Cc1n[nH]c(C)c1NC(=O)Nc1ccc(-c2nc(CS(C)(=O)=O)cc(N3CCOC[C@@H]3C)n2)cc1", "note": "[Example 22i, 1-(3,5-dimethyl-1H-pyrazol-4-yl)-3-[4-[4-[(3S)-3-methylmorpholin-4-yl]-6-(methylsulfonylmethyl)pyrimidin-2-yl]phenyl]urea]", "values": [{"measurement": "IC50", "result": 4.3, "unit": "µM"}]}
{"smiles": "CNC(=O)NC1CCN(c2nc(CS(C)(=O)=O)cc(N3CCOC[C@@H]3C)n2)CC1", "note": "[Example 23, 3-Methyl-1-[1-[4-[(3S)-3-methylmorpholin-4-yl]-6-(methylsulfonylmethyl)pyrimidin-2-yl]-4-piperidyl]urea]", "values": [{"measurement": "IC50", "result": 5.6, "unit": "µM"}]}
{"smiles": "CCNC(=O)NC1CCN(c2nc(CS(C)(=O)=O)cc(N3CCOC[C@@H]3C)n2)CC1", "note": "[Example 23a, 1-ethyl-3-[1-[4-[(3S)-3-methylmorpholin-4-yl]-6-(methylsulfonylmethyl)pyrimidin-2-yl]-4-piperidyl]urea]", "values": [{"measurement": "IC50", "result": 3.7, "unit": "µM"}]}
{"smiles": "C[C@H]1COCCN1c1cc(CS(C)(=O)=O)nc(-c2ccc(NC(=O)NCCc3ccccn3)cc2)n1", "note": "[Example 24, 1-[4-[4-[(3S)-3-Methylmorpholin-4-yl]-6-(methylsulfonylmethyl)pyrimidin-2-yl]phenyl]-3-(2-pyridin-2-ylethyl)urea]", "values": [{"measurement": "IC50", "result": 0.34, "unit": "µM"}]}
{"smiles": "C[C@H]1COCCN1c1cc(CS(C)(=O)=O)nc(-c2ccc(NC(=O)NCc3cccnc3)cc2)n1", "note": "[Example 24a, 1-[4-[4-[(3S)-3-methylmorpholin-4-yl]-6-(methylsulfonylmethyl)pyrimidin-2-yl]phenyl]-3-(pyridin-3-ylmethyl)urea]", "values": [{"measurement": "IC50", "result": 0.082, "unit": "µM"}]}
{"smiles": "CNC(=O)Nc1c(F)cc(-c2nc(N3CCOC[C@@H]3C)cc(C(C)(C)S(C)(=O)=O)n2)cc1F", "note": "[Example 24ab, 1-[2,6-difluoro-4-[4-[(3S)-3-methylmorpholin-4-yl]-6-(2-methylsulfonylpropan-2-yl)pyrimidin-2-yl]phenyl]-3-methyl-urea]", "values": [{"measurement": "IC50", "result": 0.042, "unit": "µM"}]}
{"smiles": "CCNC(=O)Nc1c(F)cc(-c2nc(N3CCOC[C@@H]3C)cc(C(C)(C)S(C)(=O)=O)n2)cc1F", "note": "[Example 24ac, 3-[2,6-difluoro-4-[4-[(3S)-3-methylmorpholin-4-yl]-6-(2-methylsulfonylpropan-2-yl)pyrimidin-2-yl]phenyl]-1-ethyl-urea]", "values": [{"measurement": "IC50", "result": 0.048, "unit": "µM"}]}
